In patent US20210276987A1, “PHARMACEUTICAL AGENTS FOR USE IN SMOKING AND TOBACCO CESSATION” (Washington State University, priority 2018, published 2021):

Key:
UGT1A9 = UGT1A9 (Homo sapiens, UniProt O60656); settings: Table 10
UGT1A6 = UGT1A6 (Homo sapiens, UniProt P19224); settings: Table 10
CYP2C9 = CYP2C9 (Homo sapiens, UniProt P11712); assay: CYP2C9 inhibition assay, human liver microsomes, diclofenac probe (cocktail); settings: Table 6
CYP2B6 = target: T1, CYP2B6 (Homo sapiens, UniProt P20813); settings: Table 6
T1 sequence (P20813 1-491): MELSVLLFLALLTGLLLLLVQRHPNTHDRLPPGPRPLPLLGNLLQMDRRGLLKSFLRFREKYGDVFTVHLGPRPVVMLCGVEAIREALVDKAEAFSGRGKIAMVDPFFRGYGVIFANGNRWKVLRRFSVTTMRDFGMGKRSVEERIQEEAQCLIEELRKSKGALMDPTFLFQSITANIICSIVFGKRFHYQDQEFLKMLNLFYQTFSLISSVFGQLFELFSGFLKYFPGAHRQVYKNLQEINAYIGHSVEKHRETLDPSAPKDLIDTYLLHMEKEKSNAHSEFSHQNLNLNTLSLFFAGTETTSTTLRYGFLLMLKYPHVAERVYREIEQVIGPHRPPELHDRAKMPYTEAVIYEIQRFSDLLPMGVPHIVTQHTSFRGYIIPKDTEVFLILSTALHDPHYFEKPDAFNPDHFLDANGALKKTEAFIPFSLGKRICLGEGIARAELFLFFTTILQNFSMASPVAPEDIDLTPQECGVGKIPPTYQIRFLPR

CYP2C8 = target: T2, CYP2C8 (Homo sapiens, UniProt P10632); settings: Table 6
T2 sequence (P10632 1-490): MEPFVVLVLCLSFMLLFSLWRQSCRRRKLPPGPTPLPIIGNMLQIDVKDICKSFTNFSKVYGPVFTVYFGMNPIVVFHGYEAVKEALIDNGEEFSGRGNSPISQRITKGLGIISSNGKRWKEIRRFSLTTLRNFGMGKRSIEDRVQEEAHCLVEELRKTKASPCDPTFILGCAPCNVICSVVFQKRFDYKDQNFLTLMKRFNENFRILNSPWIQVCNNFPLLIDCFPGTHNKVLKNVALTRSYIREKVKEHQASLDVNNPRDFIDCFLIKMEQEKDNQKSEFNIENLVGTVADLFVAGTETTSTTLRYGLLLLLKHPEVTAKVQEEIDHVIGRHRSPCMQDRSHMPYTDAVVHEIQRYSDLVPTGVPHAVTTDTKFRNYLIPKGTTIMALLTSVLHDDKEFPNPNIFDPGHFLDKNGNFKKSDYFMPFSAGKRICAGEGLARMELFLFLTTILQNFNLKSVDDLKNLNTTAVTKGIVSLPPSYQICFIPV

UGT1A1 = UGT1A1 (Homo sapiens, UniProt P22309); settings: Table 10
UGT2B15 = UGT2B15 (Homo sapiens, UniProt P54855); settings: Table 10
UGT2B7 = UGT2B7 (Homo sapiens, UniProt P16662); settings: Table 10
UGT1A4 = UGT1A4 (Homo sapiens, UniProt P22310); settings: Table 10
UGT2B17 = UGT2B17 (Homo sapiens, UniProt O75795); settings: Table 10
Chain of UGT2B17 (O75795 24-530): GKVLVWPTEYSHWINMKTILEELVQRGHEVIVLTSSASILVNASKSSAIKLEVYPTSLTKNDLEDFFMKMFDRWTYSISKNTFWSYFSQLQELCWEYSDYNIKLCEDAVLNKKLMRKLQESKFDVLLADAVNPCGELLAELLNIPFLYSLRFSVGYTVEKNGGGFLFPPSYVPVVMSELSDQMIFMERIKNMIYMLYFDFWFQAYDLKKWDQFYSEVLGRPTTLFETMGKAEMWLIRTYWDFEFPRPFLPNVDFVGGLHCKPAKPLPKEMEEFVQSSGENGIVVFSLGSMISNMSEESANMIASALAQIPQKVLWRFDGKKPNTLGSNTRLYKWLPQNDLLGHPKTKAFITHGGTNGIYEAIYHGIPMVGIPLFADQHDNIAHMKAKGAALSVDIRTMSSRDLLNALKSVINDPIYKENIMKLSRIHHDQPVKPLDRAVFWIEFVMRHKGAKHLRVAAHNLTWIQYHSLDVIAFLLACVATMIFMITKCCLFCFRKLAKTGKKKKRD

Chain of UGT1A1 (P22309 26-533): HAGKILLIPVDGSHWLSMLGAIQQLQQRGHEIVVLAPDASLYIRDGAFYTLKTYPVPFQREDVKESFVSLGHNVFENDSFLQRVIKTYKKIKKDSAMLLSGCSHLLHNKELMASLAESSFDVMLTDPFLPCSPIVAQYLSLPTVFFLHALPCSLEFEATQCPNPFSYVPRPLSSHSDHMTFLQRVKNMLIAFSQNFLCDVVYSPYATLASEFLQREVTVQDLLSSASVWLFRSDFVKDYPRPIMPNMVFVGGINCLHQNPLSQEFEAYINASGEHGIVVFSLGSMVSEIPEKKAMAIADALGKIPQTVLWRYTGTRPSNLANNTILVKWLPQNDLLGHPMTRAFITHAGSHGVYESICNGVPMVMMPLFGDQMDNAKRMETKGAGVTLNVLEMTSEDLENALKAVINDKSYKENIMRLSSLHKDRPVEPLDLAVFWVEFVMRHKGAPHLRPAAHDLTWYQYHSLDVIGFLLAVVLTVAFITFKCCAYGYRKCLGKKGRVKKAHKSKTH
Chain of UGT2B15 (P54855 24-530): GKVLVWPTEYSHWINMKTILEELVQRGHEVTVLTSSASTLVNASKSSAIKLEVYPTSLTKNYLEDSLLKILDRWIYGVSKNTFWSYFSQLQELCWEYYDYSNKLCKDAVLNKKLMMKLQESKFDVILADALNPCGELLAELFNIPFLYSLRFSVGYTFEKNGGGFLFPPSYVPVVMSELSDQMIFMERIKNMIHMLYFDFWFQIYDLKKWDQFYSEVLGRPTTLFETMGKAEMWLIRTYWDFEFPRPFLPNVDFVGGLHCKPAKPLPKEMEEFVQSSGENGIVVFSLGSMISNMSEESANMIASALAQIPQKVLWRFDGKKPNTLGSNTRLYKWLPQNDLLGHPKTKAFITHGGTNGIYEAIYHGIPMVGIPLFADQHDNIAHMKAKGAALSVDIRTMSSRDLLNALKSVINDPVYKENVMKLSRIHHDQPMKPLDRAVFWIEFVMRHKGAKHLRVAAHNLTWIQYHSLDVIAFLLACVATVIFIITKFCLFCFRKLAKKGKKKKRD
Chain of UGT2B7 (P16662 24-529): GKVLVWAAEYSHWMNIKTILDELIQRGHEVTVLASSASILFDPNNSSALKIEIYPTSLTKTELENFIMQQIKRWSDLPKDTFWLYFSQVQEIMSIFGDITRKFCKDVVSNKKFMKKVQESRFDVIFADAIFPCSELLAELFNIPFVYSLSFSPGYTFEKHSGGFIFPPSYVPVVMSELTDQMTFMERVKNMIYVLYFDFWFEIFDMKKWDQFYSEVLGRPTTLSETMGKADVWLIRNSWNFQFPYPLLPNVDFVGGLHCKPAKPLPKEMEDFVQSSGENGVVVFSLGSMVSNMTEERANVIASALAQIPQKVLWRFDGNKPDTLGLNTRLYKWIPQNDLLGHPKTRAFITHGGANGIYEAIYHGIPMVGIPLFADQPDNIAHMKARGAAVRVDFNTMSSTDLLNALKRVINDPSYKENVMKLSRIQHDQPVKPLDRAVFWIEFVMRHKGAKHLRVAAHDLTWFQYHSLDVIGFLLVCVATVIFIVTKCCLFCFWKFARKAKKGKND
Chain of UGT1A9 (O60656 26-530): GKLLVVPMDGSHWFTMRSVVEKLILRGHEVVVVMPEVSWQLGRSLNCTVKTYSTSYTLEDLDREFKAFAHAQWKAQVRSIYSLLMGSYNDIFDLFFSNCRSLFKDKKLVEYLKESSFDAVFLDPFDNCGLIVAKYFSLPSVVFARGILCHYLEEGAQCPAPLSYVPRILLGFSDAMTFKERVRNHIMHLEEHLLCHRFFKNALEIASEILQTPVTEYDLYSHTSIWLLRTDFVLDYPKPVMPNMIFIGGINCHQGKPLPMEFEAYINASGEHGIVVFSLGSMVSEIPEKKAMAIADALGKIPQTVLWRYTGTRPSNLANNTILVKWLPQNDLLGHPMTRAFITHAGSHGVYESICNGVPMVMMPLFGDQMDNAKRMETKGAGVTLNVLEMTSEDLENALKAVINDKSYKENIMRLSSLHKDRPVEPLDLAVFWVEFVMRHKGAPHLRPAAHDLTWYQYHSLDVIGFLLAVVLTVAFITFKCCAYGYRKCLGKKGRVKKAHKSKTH
Chain of UGT1A6 (P19224 27-532): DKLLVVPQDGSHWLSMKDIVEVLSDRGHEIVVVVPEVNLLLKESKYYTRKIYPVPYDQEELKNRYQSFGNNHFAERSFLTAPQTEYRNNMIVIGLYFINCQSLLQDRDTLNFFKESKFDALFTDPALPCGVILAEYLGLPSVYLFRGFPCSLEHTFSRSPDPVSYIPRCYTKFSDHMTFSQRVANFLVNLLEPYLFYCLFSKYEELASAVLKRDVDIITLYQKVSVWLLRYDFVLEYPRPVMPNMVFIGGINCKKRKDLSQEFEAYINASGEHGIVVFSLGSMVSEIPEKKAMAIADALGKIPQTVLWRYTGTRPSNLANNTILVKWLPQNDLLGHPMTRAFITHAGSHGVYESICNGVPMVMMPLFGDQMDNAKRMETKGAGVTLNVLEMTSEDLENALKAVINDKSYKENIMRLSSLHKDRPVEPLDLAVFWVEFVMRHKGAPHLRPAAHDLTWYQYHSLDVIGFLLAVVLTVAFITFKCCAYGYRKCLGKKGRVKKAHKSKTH
Chain of UGT1A4 (P22310 29-534): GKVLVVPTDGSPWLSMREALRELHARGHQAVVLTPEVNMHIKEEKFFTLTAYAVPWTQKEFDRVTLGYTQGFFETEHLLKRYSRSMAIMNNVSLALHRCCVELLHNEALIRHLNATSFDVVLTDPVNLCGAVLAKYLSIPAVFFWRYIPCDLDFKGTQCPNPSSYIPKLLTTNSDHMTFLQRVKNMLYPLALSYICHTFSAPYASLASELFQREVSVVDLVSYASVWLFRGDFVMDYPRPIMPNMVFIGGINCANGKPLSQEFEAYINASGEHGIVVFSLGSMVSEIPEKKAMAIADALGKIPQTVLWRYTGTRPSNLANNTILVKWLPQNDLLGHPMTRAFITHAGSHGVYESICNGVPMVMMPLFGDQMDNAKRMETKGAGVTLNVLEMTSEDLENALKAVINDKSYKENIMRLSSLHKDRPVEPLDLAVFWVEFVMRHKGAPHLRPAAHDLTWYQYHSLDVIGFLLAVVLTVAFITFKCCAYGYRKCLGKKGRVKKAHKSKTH
Chain of CYP2C9 (P11712 whole entry): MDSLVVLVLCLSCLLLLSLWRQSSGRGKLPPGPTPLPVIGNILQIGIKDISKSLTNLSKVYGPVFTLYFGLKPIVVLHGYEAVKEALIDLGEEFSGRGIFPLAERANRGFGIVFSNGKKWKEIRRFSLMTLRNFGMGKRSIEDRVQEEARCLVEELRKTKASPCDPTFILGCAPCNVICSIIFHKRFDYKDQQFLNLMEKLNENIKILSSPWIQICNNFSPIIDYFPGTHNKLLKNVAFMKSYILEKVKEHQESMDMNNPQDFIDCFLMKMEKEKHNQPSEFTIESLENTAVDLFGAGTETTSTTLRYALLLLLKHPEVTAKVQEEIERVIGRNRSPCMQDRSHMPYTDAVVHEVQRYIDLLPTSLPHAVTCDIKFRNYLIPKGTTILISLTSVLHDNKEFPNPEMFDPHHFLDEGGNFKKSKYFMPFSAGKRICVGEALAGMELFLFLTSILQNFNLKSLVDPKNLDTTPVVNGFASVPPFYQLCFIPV

COc1ccncc1C#CCN [Compound K, 3-(4-methoxypyridin-3-yl)prop-2-yn-1-amine]
IC50 ratio UGT1A9/UGT2B10 (UGT1A9): 5 | IC50 ratio UGT1A6/UGT2B10 (UGT1A6): 29 | IC50 ratio CYP2C9/CYP2A6 (CYP2C9): 8.2 | IC50 ratio CYP2B6/CYP2A6 (CYP2B6): 3.2 | IC50 ratio CYP2C8/CYP2A6 (CYP2C8): >15 | IC50 ratio UGT1A1/UGT2B10 (UGT1A1): 4 | IC50 ratio UGT2B15/UGT2B10 (UGT2B15): 30 | IC50 ratio UGT2B7/UGT2B10 (UGT2B7): 13 | IC50 ratio UGT1A4/UGT2B10 (UGT1A4): 7 | IC50 ratio UGT2B17/UGT2B10 (UGT2B17): 26
